In brackets after ≈: the same amount, converted by molar mass. Like-named read-outs stand apart in the source and are kept apart here.
Experiments:
S. aureus NCTC 8325 [1] = experiment: MIC, S. aureus NCTC 8325 (CLSI broth microdilution / agar dilution); type: cell-based, Staphylococcus aureus
[2] = system: S. epidermidis ATCC 12228; experiment: MIC, S. epidermidis ATCC 12228; type: cell-based; conditions: Staphylococcus epidermidis, ATCC12228; S. epidermidis ATCC 12228; read-out: MIC
MRSA ATCC 33592 = experiment: MIC, MRSA ATCC 33592; type: cell-based, methicillin-resistant Staphylococcus aureus; conditions: Staphylococcus aureus, MRSA ATCC 33592, read-out: MIC
MRSA ATCC 49476 = experiment: MIC, MRSA ATCC 49476; type: cell-based, methicillin-resistant Staphylococcus aureus; conditions: Staphylococcus aureus; MRSA ATCC 49476; read-out: MIC
MRSA SCCmec VT = experiment: MIC, MRSA SCCmec VT; type: cell-based, methicillin-resistant Staphylococcus aureus; conditions: Staphylococcus aureus; MRSA SCCmec VT; read-out: MIC
S. aureus NCTC 8325 [3] = type: cell-based, Staphylococcus aureus; conditions: for fold MIC change (resistance): sub-inhibitory concentration for 30 consecutive days; for time to over 64-fold MIC change: sub-inhibitory concentration, serial passage
HEK-293 = experiment: Antiproliferative activity, HEK-293; type: cell-based, human; conditions: HEK-293, antiproliferative
Description: (§1) In addition to the antibacterial activities, the cytotoxic effects of these malonate derivatives on human cancer cell lines were also assessed.

K-562 = experiment: Antiproliferative activity, K-562; type: cell-based, human; conditions: K-562, antiproliferative
Description: as §1

[4] = system: S. epidermidis ATCC 35984; experiment: MIC, S. epidermidis ATCC 35984; type: cell-based; conditions: Staphylococcus epidermidis, ATCC35984; S. epidermidis ATCC 35984; read-out: MIC
[5] = Staphylococcus aureus, NCTC8325
[6] = Staphylococcus aureus, MSSA NCTC 8325, Table 6, read-out: MIC
[7] = Staphylococcus aureus, NCTC8325, S. aureus NCTC 8325, read-out: MIC

Row | Compound | MIC (S. aureus NCTC 8325 [1]; [6]) | MIC (MRSA ATCC 33592; Table 6) | further results
1 | CC1COc2c(N3CCN(C)CC3)c(F)cc3c(=O)c(C(=O)O)cn1c23 (centres unmarked) [Ofloxacin] | – | – | MIC (S. aureus NCTC 8325 [1]; [5]): 0.125 µg/mL (≈ 0.346 µM); MIC [2]: 0.25 µg/mL (≈ 0.692 µM); MIC (MRSA ATCC 33592): 0.25 µg/mL (≈ 0.692 µM); MIC (MRSA ATCC 49476): 0.5 µg/mL (≈ 1.38 µM); MIC (MRSA SCCmec VT): 0.25 µg/mL (≈ 0.692 µM); fold MIC change (resistance) (S. aureus NCTC 8325 [3]): 8 fold
2 | CCCNC(=O)C(CCCl)C(=O)Nc1ccc(Cl)c(C(F)(F)F)c1 (centres unmarked) [SC5049, N1-(4-chloro-3-(trifluoromethyl)phenyl)-2-(2-chloroethyl)-N3-propylmalonamide] | > 64 µg/mL | > 64 µg/mL | –
3 | O=C(Nc1ccc([N+](=O)[O-])c(C(F)(F)F)c1)C(CCCl)C(=O)Nc1ccc([N+](=O)[O-])c(C(F)(F)F)c1 [SC5034, 2-(2-chloroethyl)-N^1,N^3-bis(4-nitro-3-(trifluoromethyl)phenyl)malonamide] | 1 µg/mL (≈ 1.84 µM) | – | –
4 | C=CCC(C(=O)Nc1cc(Cl)cc(Cl)c1)C(=O)Nc1cc(Cl)cc(Cl)c1 [SC5040, 2-allyl-N^1,N^3-bis(3,5-dichlorophenyl)malonamide] | > 32 µg/mL | > 32 µg/mL | –
5 | CCCCNC(=O)C(CCCl)C(=O)NCCCC [SC5047, N1,N3-dibutyl-2-(2-chloroethyl)malonamide] | > 64 µg/mL | > 64 µg/mL | –
6 | CCOC(=O)C1=C(N)Oc2ccc(Cl)cc2C1C(C#N)C(=O)OCC (centres unmarked) [SC79] | – | – | MIC (S. aureus NCTC 8325 [1]; S. aureus NCTC 8325, Table 2): 0.5 µg/mL (≈ 1.37 µM); IC50 (HEK-293): 2.22 µg/mL (≈ 6.09 µM); IC50 (K-562): 1.78 µg/mL (≈ 4.88 µM)
7 | O=C(NC1CCCCC1)C(CCCl)C(=O)NC1CCCCC1 [SC5048, 2-(2-chloroethyl)-N1,N3-dicyclohexylmalonamide] | > 64 µg/mL | > 64 µg/mL | –
8 | O=C(Nc1cccc(Cl)c1)C(CCCl)C(=O)Nc1cccc(Cl)c1 [SC5027, 2-(2-chloroethyl)-N^1,N^3-bis(3-chlorophenyl)malonamide] | > 8 µg/mL | – | –
9 | C#Cc1cccc(NC(=O)C(CC=C)C(=O)Nc2cccc(C#C)c2)c1 [SC5038, 2-allyl-N^1,N^3-bis(3-ethynylphenyl)malonamide] | > 32 µg/mL | > 32 µg/mL | –
10 | O=C(Nc1cc(C(F)(F)F)cc(C(F)(F)F)c1)C(CCCl)C(=O)Nc1cc(C(F)(F)F)cc(C(F)(F)F)c1 [SC5032, N,N^3-bis(3,5-bis(trifluoromethyl)phenyl)-2-(2-chloroethyl)malonamide] | 32 µg/mL (≈ 54.4 µM) | – | –
11 | CO[C@H]1/C=C/O[C@@]2(C)Oc3c(C)c(O)c4c(O)c(c(/C=N/N5CCN(C)CC5)c(O)c4c3C2=O)NC(=O)/C(C)=C\C=C\[C@H](C)[C@H](O)[C@@H](C)[C@@H](O)[C@@H](C)[C@H](OC(C)=O)[C@@H]1C [Rifampicin] | – | – | MIC (S. aureus NCTC 8325 [1]; [5]): 0.125 µg/mL (≈ 0.152 µM); MIC [2]: < 0.004 µg/mL; MIC (MRSA ATCC 33592): > 64 µg/mL; MIC (MRSA ATCC 49476): 0.25 µg/mL (≈ 0.304 µM); MIC (MRSA SCCmec VT): 0.5 µg/mL (≈ 0.608 µM); time to over 64-fold MIC change (S. aureus NCTC 8325 [3]): ≤ 6 days
12 | O=C(Nc1ccc(Cl)c(C(F)(F)F)c1)C(CCCl)C(=O)NC1CCCCC1 (centres unmarked) [SC5053, N1-(4-chloro-3-(trifluoromethyl)phenyl)-2-(2-chloroethyl)-N3-cyclohexylmalonamide] | > 64 µg/mL | > 64 µg/mL | –
13 | C#Cc1cccc(NC(=O)C(CCCl)C(=O)Nc2cccc(C#C)c2)c1 [SC5026, 2-(2-chloroethyl)-N^1,N^3-bis(3-ethynylphenyl)malonamide] | > 8 µg/mL | – | –
14 | C#Cc1cccc(NC(=O)C2(C(=O)Nc3cccc(C#C)c3)CC2)c1 [SC5021, N,N′-bis(3-ethynylphenyl)cyclopropane-1,1-dicarboxamide] | 8 µg/mL (≈ 24.4 µM) | – | –
15 | C=CCC(C(=O)Nc1cccc(CC)c1)C(=O)Nc1cccc(CC)c1 [SC5039, 2-allyl-N^1,N^3-bis(3-ethylphenyl)malonamide] | > 32 µg/mL | > 32 µg/mL | –
16 | CC[C@H]1OC(=O)[C@H](C)[C@@H](O[C@H]2C[C@@](C)(OC)[C@@H](O)[C@H](C)O2)[C@H](C)[C@@H](O[C@@H]2O[C@H](C)C[C@H](N(C)C)[C@H]2O)[C@](C)(O)C[C@@H](C)C(=O)[C@H](C)[C@@H](O)[C@]1(C)O [Erythromycin] | – | – | MIC (S. aureus NCTC 8325 [1]; [7]): 0.5 µg/mL (≈ 0.681 µM); MIC [2]: 4 µg/mL (≈ 5.45 µM); MIC [4]: 4 µg/mL (≈ 5.45 µM); MIC (MRSA ATCC 33592): > 64 µg/mL; MIC (MRSA ATCC 49476): > 64 µg/mL; MIC (MRSA SCCmec VT): > 64 µg/mL; time to over 64-fold MIC change (S. aureus NCTC 8325 [3]): ≤ 17 days
17 | O=C(Nc1cccc(C(F)(F)F)c1)C(CCCl)C(=O)Nc1cccc(C(F)(F)F)c1 [SC5023, 2-(2-chloroethyl)-N^1,N^3-bis(3-(trifluoromethyl)phenyl)malonamide] | 2 µg/mL (≈ 4.42 µM) | 1 µg/mL (≈ 2.21 µM) | –
18 | O=C(N[C@H](CO)[C@H](O)c1ccc([N+](=O)[O-])cc1)C(Cl)Cl [Chloramphenicol] | – | – | MIC (S. aureus NCTC 8325 [1]; [7]): 4 µg/mL (≈ 12.4 µM); MIC [2]: 2 µg/mL (≈ 6.19 µM); MIC (MRSA ATCC 33592): 32 µg/mL (≈ 99 µM); MIC (MRSA ATCC 49476): 8 µg/mL (≈ 24.8 µM); MIC (MRSA SCCmec VT): 64 µg/mL (≈ 198 µM); fold MIC change (resistance) (S. aureus NCTC 8325 [3]): no resistance

Row | Compound | MIC (S. aureus NCTC 8325 [1]; [6]) | MIC (MRSA ATCC 33592; Table 6) | further results
19 | CN(C)[C@@H]1C(O)=C(C(N)=O)C(=O)[C@@]2(O)C(O)=C3C(=O)c4c(O)cccc4[C@@](C)(O)[C@H]3C[C@@H]12 [Tetracycline] | – | – | MIC [2]: 8 µg/mL (≈ 18 µM); MIC [4]: 0.25 µg/mL (≈ 0.563 µM); MIC (MRSA ATCC 33592): > 64 µg/mL; MIC (MRSA ATCC 49476): > 64 µg/mL; MIC (MRSA SCCmec VT): 32 µg/mL (≈ 72 µM)
20 | O=C(Nc1ccc(OC(F)(F)F)cc1)C(CCCl)C(=O)Nc1ccc(OC(F)(F)F)cc1 [SC5024, 2-(2-chloroethyl)-N^1,N^3-bis(4-(trifluoromethoxy)phenyl)malonamide] | 1 µg/mL (≈ 2.06 µM) | 1 µg/mL (≈ 2.06 µM) | –
21 | CCCCNC(=O)C(CCCl)C(=O)Nc1ccc(Cl)c(C(F)(F)F)c1 (centres unmarked) [SC5052, N1-butyl-N3-(4-chloro-3-(trifluoromethyl)phenyl)-2-(2-chloroethyl)malonamide] | > 64 µg/mL | > 64 µg/mL | –
22 | C=CCNC(=O)C(CCCl)C(=O)Nc1ccc(Cl)c(C(F)(F)F)c1 (centres unmarked) [SC5050, N1-allyl-N3-(4-chloro-3-(trifluoromethyl)phenyl)-2-(2-chloroethyl)malonamide] | > 64 µg/mL | > 64 µg/mL | –
23 | C=CCNC(=O)C(CCCl)C(=O)NCC=C [SC5051, N1,N3-diallyl-2-(2-chloroethyl)malonamide] | > 64 µg/mL | > 64 µg/mL | –
24 | O=C(Nc1ccccc1)C(CCCl)C(=O)Nc1ccccc1 [SC5022, 2-(2-chloroethyl)-N^1,N^3-diphenylmalonamide] | > 8 µg/mL | – | –
25 | C=CCC(C(=O)Nc1ccc(Cl)c(C(F)(F)F)c1)C(=O)Nc1ccc(Cl)c(C(F)(F)F)c1 [SC5037, 2-allyl-N^1,N^3-bis(4-chloro-3-(trifluoromethyl)phenyl)malonamide] | 8 µg/mL (≈ 16 µM) | > 32 µg/mL | –
26 | CC1(C)S[C@@H]2[C@H](NC(=O)[C@H](N)c3ccccc3)C(=O)N2[C@H]1C(=O)O [Ampicillin] | – | – | MIC (S. aureus NCTC 8325 [1]; [7]): 0.25 µg/mL (≈ 0.715 µM); MIC [2]: 32 µg/mL (≈ 91.6 µM); MIC [4]: > 32 µg/mL; MIC (MRSA ATCC 33592): > 64 µg/mL; MIC (MRSA ATCC 49476): > 64 µg/mL; MIC (MRSA SCCmec VT): 64 µg/mL (≈ 183 µM); time to over 64-fold MIC change (S. aureus NCTC 8325 [3]): ≤ 27 days
27 | O=C(Nc1ccc(Cl)c(C(F)(F)F)c1)C1(C(=O)Nc2ccc(Cl)c(C(F)(F)F)c2)CC1 [SC5020, N,N′-bis(4-chloro-3-(trifluoromethyl)phenyl)cyclopropane-1,1-dicarboxamide] | > 8 µg/mL | – | –
28 | Cc1ccc(NC(=O)C(CCCl)C(=O)Nc2ccc(C)c(O)c2)cc1O [SC5029, 2-(2-chloroethyl)-N^1,N^3-bis(3-hydroxy-4-methylphenyl)malonamide] | 8 µg/mL (≈ 21.2 µM) | – | –
29 | O=C(Nc1cc(Cl)cc(Cl)c1)C(CCCl)C(=O)Nc1cc(Cl)cc(Cl)c1 [SC5025, 2-(2-chloroethyl)-N^1,N^3-bis(3,5-dichlorophenyl)malonamide] | 0.25 µg/mL (≈ 0.55 µM) | 0.25 µg/mL (≈ 0.55 µM) | –
30 | O=C(Nc1cccc([N+](=O)[O-])c1)C(CCCl)C(=O)Nc1cccc([N+](=O)[O-])c1 [SC5028, 2-(2-chloroethyl)-N^1,N^3-bis(3-nitrophenyl)malonamide] | > 64 µg/mL | – | –
31 | O=C(Nc1cccc(O)c1)C(CCCl)C(=O)Nc1cccc(O)c1 [SC5031, 2-(2-chloroethyl)-N^1,N^3-bis(3-hydroxyphenyl)malonamide] | > 64 µg/mL | – | –
32 | O=C(Nc1cc(Cl)cc(Cl)c1)C(CCCl)C(=O)Nc1cc(C(F)(F)F)cc(C(F)(F)F)c1 (centres unmarked) [SC5036, N^1-(3,5-bis(trifluoromethyl)phenyl)-2-(2-chloroethyl)-N^3-(3,5-dichlorophenyl) malonamide] | 0.25 µg/mL (≈ 0.479 µM) | 0.5 µg/mL (≈ 0.958 µM) | –
33 | CCCNC(=O)C(CCCl)C(=O)NCCC [SC5046, 2-(2-chloroethyl)-N1,N3-dipropylmalonamide] | > 64 µg/mL | > 64 µg/mL | –
34 | O=C(Nc1ccc(Cl)c(O)c1)C(CCCl)C(=O)Nc1ccc(Cl)c(O)c1 [SC5030, N^1,N^3-bis(4-chloro-3-hydroxyphenyl)-2-(2-chloroethyl)malonamide] | > 16 µg/mL | – | –
35 | N^1,N^3-bis(4-pentafluorosulfurphenyl)-2-(2-chloroethyl)malonamide [SC5033] | – | – | MIC (S. aureus NCTC 8325 [1]; MSSA NCTC 8325, Table 6): 32 µg/mL
36 | O=C(Nc1cc(Cl)cc(Cl)c1)C(CCCl)C(=O)Nc1ccc([N+](=O)[O-])c(C(F)(F)F)c1 (centres unmarked) [SC5041, 2-(2-chloroethyl)-N^1-(3,5-dichlorophenyl)-N^3-(4-nitro-3-(trifluoromethyl)phenyl)malonamide] | 0.5 µg/mL (≈ 1 µM) | 0.5 µg/mL (≈ 1 µM) | –
